Experimental data published in the NIST ThermoML archive (doi:10.1021/je900050z).

Details: Liquid

CCC(C)(C)O [2-methylbutan-2-ol]
Details | vapor or sublimation pressure [kPa]
303.29 K | 2.81
303.47 K | 2.85
304.67 K | 3.16
305.75 K | 3.4
305.9 K | 3.43
308.35 K | 4.08
309.12 K | 4.31
309.86 K | 4.55
310.61 K | 4.8
311.64 K | 5.15
312.47 K | 5.43
313.38 K | 5.77
314.17 K | 6.08
315.44 K | 6.59
317.09 K | 7.31
318.64 K | 7.99
319.37 K | 8.36
319.86 K | 8.61
320.32 K | 8.84
321.32 K | 9.36
322.44 K | 9.99
323.15 K | 10.41
323.27 K | 10.49
324.11 K | 11.03
324.91 K | 11.51
325.71 K | 12.03
326.45 K | 12.55
327.18 K | 13.05
327.62 K | 13.36
328.41 K | 13.97
329.33 K | 14.65
330.15 K | 15.31
330.98 K | 15.97
331.8 K | 16.67
332.46 K | 17.29
333.15 K | 17.87
333.26 K | 17.99
333.99 K | 18.65
334.69 K | 19.32
335.45 K | 20.03
336.05 K | 20.67
336.68 K | 21.31
337.31 K | 21.96
337.97 K | 22.63
338.69 K | 23.47
339.15 K | 23.97
339.68 K | 24.67
340.31 K | 25.35
340.83 K | 26
341.39 K | 26.67
341.9 K | 27.33
342.4 K | 27.97
342.92 K | 28.67
343.15 K | 28.95
343.42 K | 29.31
343.94 K | 30.01
344.47 K | 30.67
344.91 K | 31.35
345.39 K | 32.07
345.78 K | 32.67
346.35 K | 33.48
347.18 K | 34.67
347.57 K | 35.32
348.07 K | 36.07
348.49 K | 36.71
348.88 K | 37.36
349.27 K | 38.01
349.64 K | 38.64
350.08 K | 39.32
350.49 K | 39.96
350.83 K | 40.64
351.2 K | 41.31
351.67 K | 42.08
351.95 K | 42.65
352.3 K | 43.35
352.73 K | 44
353.02 K | 44.65
353.15 K | 44.87
353.44 K | 45.35
353.73 K | 45.97
354.1 K | 46.63
354.41 K | 47.28
354.72 K | 47.95
355.11 K | 48.65
355.43 K | 49.31
355.74 K | 49.95
356.09 K | 50.75
356.45 K | 51.36
356.69 K | 52
356.99 K | 52.61
357.35 K | 53.32
357.67 K | 54.03
357.96 K | 54.67
358.25 K | 55.35
358.47 K | 55.95
358.85 K | 56.63
359.15 K | 57.33
359.48 K | 58
359.68 K | 58.59
360.01 K | 59.27
360.21 K | 59.95
360.53 K | 60.59
360.83 K | 61.27
361.11 K | 61.99
361.4 K | 62.61
361.72 K | 63.35
362.01 K | 64.04
362.24 K | 64.67
362.54 K | 65.35
362.84 K | 66
363.07 K | 66.71
363.56 K | 67.92
364.15 K | 69.21
364.62 K | 70.64
365.21 K | 71.99
365.73 K | 73.37
366.16 K | 74.75
366.67 K | 76.05
367.11 K | 77.28
367.53 K | 78.63
368.02 K | 79.97
368.44 K | 81.28
368.83 K | 82.53
369.31 K | 83.93
369.73 K | 85.28
370.15 K | 86.63
370.56 K | 87.97
370.99 K | 89.39
371.39 K | 90.76
371.77 K | 91.99
372.16 K | 93.31
372.56 K | 94.67
372.95 K | 95.99
373.34 K | 97.39
373.73 K | 98.71

CCC(C)O (centres undefined) [butan-2-ol]
Details | vapor or sublimation pressure [kPa]
314.47 K | 6.08
315.36 K | 6.43
316.21 K | 6.81
317.61 K | 7.45
318.57 K | 7.92
319.37 K | 8.35
319.58 K | 8.45
320.18 K | 8.77
321.05 K | 9.23
322.03 K | 9.8
322.68 K | 10.19
323.15 K | 10.48
323.41 K | 10.64
324.05 K | 11.04
324.72 K | 11.47
325.27 K | 11.84
325.92 K | 12.31
326.66 K | 12.81
327.32 K | 13.16
328.28 K | 14.03
329.05 K | 14.61
329.91 K | 15.31
330.49 K | 15.79
331.11 K | 16.31
331.58 K | 16.71
332.17 K | 17.25
332.81 K | 17.87
333.15 K | 18.2
333.28 K | 18.33
333.65 K | 18.68
334.23 K | 19.24
334.69 K | 19.71
335.19 K | 20.2
335.69 K | 20.71
336.28 K | 21.33
336.77 K | 21.85
337.23 K | 22.35
337.72 K | 22.87
338.08 K | 23.28
338.6 K | 23.87
339.07 K | 24.43
339.5 K | 24.95
339.9 K | 25.43
340.34 K | 25.97
340.95 K | 26.79
341.4 K | 27.36
341.87 K | 27.99
342.34 K | 28.63
342.89 K | 29.37
343.15 K | 29.76
343.32 K | 29.97
343.81 K | 30.67
344.25 K | 31.31
344.71 K | 31.99
345.14 K | 32.63
345.6 K | 33.33
346.02 K | 33.99
346.45 K | 34.67
346.86 K | 35.32
347.28 K | 36.01
347.65 K | 36.63
348.06 K | 37.31
348.45 K | 37.99
348.85 K | 38.64
349.21 K | 39.29
349.58 K | 39.95
350.15 K | 40.97
350.75 K | 42.05
351.25 K | 43.03
351.74 K | 43.96
352.26 K | 44.97
353.08 K | 46.6
353.15 K | 46.75
353.6 K | 47.65
354.06 K | 48.61
354.53 K | 49.61
355 K | 50.63
355.45 K | 51.63
355.81 K | 52.39
356.23 K | 53.33
356.8 K | 54.63
357.37 K | 55.96
357.99 K | 57.41
358.5 K | 58.67
359.06 K | 60.03
359.62 K | 61.41
360.13 K | 62.73
360.61 K | 63.97
361.1 K | 65.29
361.64 K | 66.71
362.1 K | 67.99
362.63 K | 69.43
363.07 K | 70.69
363.57 K | 72.12
364 K | 73.36
364.48 K | 74.72
364.9 K | 76
365.33 K | 77.31
365.76 K | 78.65
366.18 K | 79.95
366.63 K | 81.35
367.04 K | 82.63
367.47 K | 84.03
367.88 K | 85.39
368.27 K | 86.71
368.68 K | 88.05
369.08 K | 89.41
369.43 K | 90.67
369.79 K | 91.91
370.19 K | 93.33
370.56 K | 94.44
370.94 K | 96
371.32 K | 97.35
371.65 K | 98.59
